Experimental data: US20250052985A1, “SYSTEM AND METHOD FOR QUANTITATIVE PHASE IMAGING FOR MULTI-PARAMETRIC SCREENING OF TUMOR THERAPY RESPONSE” (UNIVERSITY OF UTAH RESEARCH FOUNDATION, priority 2023, published 2025)
“And” between values parts separate entries of the source, which are not always exact repeats. Equal entries are not always repeated. Where two headings read alike, the source gives them in different places.

What was measured:
[1] = system: MDA-MB-231 cells; test: Quantitative phase imaging (QPI) growth response, MDA-MB-231; assay type: cell-based; design: DoR QPI: scale not given here; ToR 20 μM: unit not given here; details: for Max Asymptote / Min Asymptote: MDA-MB-231, 4-parameter Hill fit of mean SGR vs concentration, one line per replicate; for EC50: Homo sapiens; for SGR (specific growth rate) / tD: one individual MDA-MB-231 cell, 2 μM doxorubicin
Excerpt: (§1) In some embodiments, breast cancer cell lines are imaged, representing diverse clinical subtypes, summarized in Table 2 below, using a QPI microscope (FIG. 1A) based on differential phase contrast (DPC) microscopy and phase reconstruction via a QPI microscope system. DPC is used for image acquisition and phase reconstruction because DPC's flexible design may be customized for high throughput phase measurements. […] As illustrated in the embodiment of FIG. 1A, a QPI microscope system 100 conducts assays in a 96-well plate (e.g., a well-plate 105) with 6-point dose response curves and up to five therapies in triplicate including solvent controls, summarized in Table 4 below. As described below, in reference to FIG. 1A, a growth response of cells is measured noninvasively using QPI via a QPI microscope system 110 before being assayed using a CTG reader 115.
(§2) FIG. 1B illustrates a timeline plot 200 showing two plates (e.g., two, separate well-plates 105) set up in parallel to measure cell viability. With reference to FIG. 1B, two plates are set-up simultaneously for each experiment. A first plate 205 is incubated for 27 hours (h) post drug exposure prior to CTG analysis (3 h equilibration+24 h of imaging), which measures cell adenosine triphosphate (ATP) content as a surrogate for cell viability. A second plate 210 is imaged for 72 h after 3 h equilibration (e.g., 75 h) and followed by CTG. […] The imaging locations are imaged for 72 h, as shown by images 1700-1715 of FIG. 7.
(§3) In some embodiments, a dose-dependent change in growth, as indicated by a change in the rate of mass accumulation or loss, is a parameter that can be extracted from QPI dose-response data. […] Individual specific growth rate measurements are indicated by points in the distribution of the graph 1200 of FIG. 2A. Blue is indicative of the DMSO control and red is indicative of doxorubicin. The black outline is a kernel density function fit to the distribution of specific growth rates for each condition (e.g., *p<0.05, **p<0.01). In some embodiments, the average SGR of each condition is fit to a sigmoid dose-response curve using a Hill equation. For example, computed logistic fit parameters using a 4-parameter Hill model via the QPI microscope system 110 for all conditions are summarized in Tables 5-8 below. To determine if there is a response, as illustrated by FIG. 2B, the QPI microscope system 110 tests goodness of fit, adjusts for degrees of freedom using an F-test at significance p<0.01 by comparison to a flat line, as an indicator of no response. For cases with a better fit to the Hill equation, the 4-parameter Hill curve may be used by the QPI microscope system 110 to determine the EC50, a measure of sensitivity to therapy because it represents the effective concentration at which 50% of the cells respond to therapy, as illustrated by FIG. 10. […] A 4-parameter Hill curve is fit to each dose response plot to extract the depth of response and EC50 for each cell/drug pair. A flat line represents no response due to failure of the F-test to reject the null hypothesis that the logistic fit is indistinguishable from a flat line. […] Each color indicates a different drug or therapy used.

[2] = system: MDA-MB-231 cells; test: CellTiter-Glo (CTG) ATP viability assay, MDA-MB-231; assay type: cell-based; details: for Min Asymptote: MDA-MB-231, Hill fit of luminescence normalized to solvent control, one line per replicate; for EC50: Homo sapiens
Method: CTG (e.g., read by the CTG reader 115) is a cell viability assay that quantifies the amount of ATP present at the end of an experiment as an indicator of the number of live cells. The electronic controller 155 measures ATP content in each condition as a readout by a luminescent signal, which is normalized by the luminescence of the control (e.g., a control well) to determine cell viability relative to on-plate controls. In some embodiments, the CTG assay is performed by first removing 100 μL of media from each well on the well-plate 105, which is then replaced with an equal amount of CellTiter-Glo reagent (e.g., Promega, G7572). Assayed plates may be shaken at 500 RPM for 20 minutes and allowed to rest for 10 minutes. In some instances, 100 μL of volume from each well is transferred to a white 96-well plate (e.g., Perkin Elmer, 6005680). The electronic controller 155 collects luminescence data from each well using an Envision plate reader (e.g., Perkin Elmer) and normalized against the solvent control to measure ATP content. The electronic controller 155 fits a 4-parameter hill curve to the dose response to determine the EC50 and depth of response.

[3] = system: BT-474 cells; test: cells; details: for Max Asymptote / Min Asymptote: BT-474, 4-parameter Hill fit of mean SGR vs concentration, one line per replicate; for Hill Slope / log10(EC50): BT-474, Hill fit; for EC50: Homo sapiens
Excerpt: as §1, §2, §3

[4] = system: MCF-7 cells; test: cells; details: for Hill Slope / log10(EC50): MCF-7, Hill fit; for EC50: Homo sapiens
Excerpt: as §1, §2, §3

[5] = 24 h QPI, EC50 in μM per Table 1
[6] = 72 h QPI, EC50 in μM per Table 1

log10(EC50) ([1]; 72 h QPI, MDA-MB-231, Hill fit, EC50 in μM per Table 1): 1.0414
EC50 ([1]; MDA-MB-231, 72 h, 72 h QPI, MDA-MB-231, Hill fit, EC50 in μM per Table 1, read-out: log10(EC50) (converted)): 0.0794 µM
EC50 ([1]; MDA-MB-231, MDA-MB-231 cell line, EC50 of the standard deviation, read-out: EC50, SD (converted)): 0.549 µM
EC50 ([1]; MDA-MB-231, MDA-MB-231 cell line, QPI growth rate, read-out: EC50, QPI): 0.1 µM
log10(EC50) ([2]; 72 h CTG, MDA-MB-231, Hill fit): 0.5401
EC50 ([2]; MDA-MB-231, 24 h, 24 h CTG, MDA-MB-231, Hill fit, read-out: log10(EC50) (converted)): 1.25 µM
EC50 ([2]; MDA-MB-231, 72 h, 72 h CTG, MDA-MB-231, Hill fit, read-out: log10(EC50) (converted)): 0.204 µM
EC50 ([2]; MDA-MB-231, MDA-MB-231 cell line, CellTiter-Glo, read-out: EC50, CTG): 0.3 µM
log10(EC50) [3, 5]: −0.2827 and −0.2235
log10(EC50) [3, 6]: 0.3361 and 0.3186
EC50 ([3]; BT-474, 24 h, read-out: log10(EC50), 24 h QPI, BT-474, Hill fit (converted), EC50 in μM per Table 1): 1.78 µM
EC50 ([3]; BT-474, 72 h, read-out: log10(EC50), 72 h QPI, BT-474, Hill fit (converted), EC50 in μM per Table 1): 0.475 µM
EC50 ([3]; BT-474, read-out: EC50, QPI, BT-474 cell line, QPI growth rate): 0.5 µM
log10(EC50) [4, 5]: 0.2581
log10(EC50) [4, 6]: 0.7197 and 0.7012
EC50 ([4]; MCF7, 72 h, read-out: log10(EC50), 72 h QPI, MCF-7, Hill fit (converted), EC50 in μM per Table 1): 0.235 µM
EC50 ([4]; MCF7, read-out: EC50, QPI, MCF-7 cell line, QPI growth rate): 0.2 µM
EC50 ([4]; MCF7, read-out: EC50, SD, MCF-7 cell line, EC50 of the standard deviation): 11 µM
SMILES: COc1cccc2c1C(=O)c1c(O)c3c(c(O)c1C2=O)C[C@@](O)(C(=O)CO)C[C@@H]3O[C@H]1C[C@H](N)[C@H](O)[C@H](C)O1 [Doxorubicin]
Max Asymptote ([1]; 24 h QPI): 0.03123 and 0.03492 and 0.03444
Min Asymptote ([1]; 24 h QPI): 0.002229 and 0.006476 and 0.003476
Hill Slope ([1]; 24 h QPI, MDA-MB-231, Hill fit): 1.1528 and 1.2328 and 1.1155
Max Asymptote ([1]; 72 h QPI): 0.0002323 and 0.002183
Min Asymptote ([1]; 72 h QPI): 0.03291 and 0.03136
Hill Slope ([1]; 72 h QPI, MDA-MB-231, Hill fit): 0.9982 and 1.1886
Hellinger distance of SGR distribution from control ([1]; MDA-MB-231, 0.08 μM): greater than the threshold indicating a response
Hellinger distance of SGR distribution from control ([1]; MDA-MB-231, 0.4 μM): much greater Hellinger distance from the control
reduction of heterogeneity (SD of growth rates) ([1]; MDA-MB-231, 20 μM, 72 h): fourfold
growth rate and heterogeneity over time ([1]; MDA-MB-231, highest concentration, FIG. 21 F): simultaneously decreases in growth rate and heterogeneity
growth rate and heterogeneity over time ([1]; MDA-MB-231, middle concentrations, FIG. 21 C-E): change in growth rate over time with little to no change in heterogeneity
DoR QPI ([1]; MDA-MB-231 cell line, depth of response, QPI): 1.0
ToR 20 μM ([1]; MDA-MB-231 cell line, time of response at 20 μM): −3.0
SGR (specific growth rate) ([1]; abrupt decrease in mass during cell death): -0.217 h⁻¹
tD ([1]; first 10 h): 19 h
SGR (specific growth rate) ([1]; first 10 h, robust growth): 0.0358 h⁻¹
tD ([1]; next 26 h): 66 h
SGR (specific growth rate) ([1]; next 26 h, reduced growth): 0.0105 h⁻¹
SGR (specific growth rate) ([1]; subsequent gradual loss of mass): -0.0033 h⁻¹
Hill Slope ([2]; 24 h CTG, MDA-MB-231, Hill fit): 1.125
Min Asymptote ([2]; 24 h CTG): 0.4072
Hill Slope ([2]; 72 h CTG, MDA-MB-231, Hill fit): 0.8064 and 0.7906
Min Asymptote ([2]; 72 h CTG): 0.01711 and 0.03777 (2×)
DoR CTG ([2]; MDA-MB-231 cell line, depth of response, CellTiter-Glo): 1.0
Max Asymptote ([3]; 24 h QPI): 0.01297 and 0.01051 and 0.00993
Min Asymptote ([3]; 24 h QPI): −0.001567 and −0.002506 and −0.002371
Hill Slope ([3]; 24 h QPI): 1.5047 and 1.6529 and 1.3096
Max Asymptote ([3]; 72 h QPI): −0.00359 and −0.003807 and −0.003696
Min Asymptote ([3]; 72 h QPI): 0.009626 and 0.009175 and 0.009318
Hill Slope ([3]; 72 h QPI): 3.7081 and 4.795 and 3.6266
DoR QPI ([3]; BT-474 cell line, depth of response, QPI): 1.4
ToR 20 μM ([3]; BT-474 cell line, time of response at 20 μM): 3.4
cluster mass tracked over time ([3]; small cluster of BT-474 cells, 2 μM, 72 h): losing mass
Max Asymptote ([4]; 24 h QPI, MCF-7, 4-parameter Hill fit of mean SGR vs concentration, one line per replicate): 0.03024 and 0.03614 (2×)
Hill Slope ([4]; 24 h QPI): 0.4225 and 0.5056
Min Asymptote ([4]; 72 h QPI, MCF-7, 4-parameter Hill fit of mean SGR vs concentration, one line per replicate): 0.02487 and 0.02696 and 0.02807
Hill Slope ([4]; 72 h QPI): 1.1171 and 1.2782 and 1.7872
SGR minimum (mean±standard deviation, SD) ([4]; MCF-7, 20 μM, highest dose tested): −0.003+0.004 h^−1
DoR QPI ([4]; MCF-7 cell line, depth of response, QPI): 1.1
ToR 20 μM ([4]; MCF-7 cell line, time of response at 20 μM): −1.3
